Experimental data from ChEMBL document CHEMBL6103652, “Niacin Ester Derivative of Brefeldin A as a Potential Dual-Target Arf1/BMX Inhibitor for Bladder Cancer” (J Nat Prod, 2025).
pIC50: −log10 of the molar value. Converted amounts (≈) assume the structure as drawn.

Columns and labels:
[1] = Antitumor activity against mouse MB49 cells implanted in male C57BL/6 mouse model assessed as tumor growth inhibition at 1 mg/kg,iv bid measured after 14 days relative to control; format: functional; settings: MB49, 336 h, time 14 day, read-out: TGI
T-24 [2] = experiment: Induction in apoptosis in human T24 cells assessed as early apoptotic cells at 0.25 uM incubated for 48 hrs by Annexin V-FITC staining based flow cytometry analysis (reference value: 3.64 %); format: functional
T-24 [3] = experiment: Induction of cell cycle arrest in human T24 cells assessed as accumulation of cells at S phase at 0.13 uM incubated for 24 hrs by RNase A/Propidium Iodide staining based flow cytometry analysis (reference value: 31.27 %); format: functional
[4] = Toxicity in male C57BL/6 mouse allografted with mouse MB49 cells assessed as tumor cell necrosis at 1 mg/kg,iv bid measured after 14 days by H and E staining based analysis; format: organism-based; settings: in vivo, 336 h, time 14 day
HT-29 = experiment: Antiproliferative activity against human HT-29 cells assessed as inhibition of cell proliferation measured after 72 hrs by MTT assay; format: functional, cell-based; settings: HT-29, 72 h
[5] = target: T1, Cytoplasmic tyrosine-protein kinase BMX (Homo sapiens) (UniProt P51813); experiment: Induction of thermal stabilization of BMX in human T24 cells pretreated for 2 hrs followed by pronase addition and measured after 25 mins by DARTS assay; format: cell-based; settings: dose 0.2-5 mM
T1 sequence (whole entry): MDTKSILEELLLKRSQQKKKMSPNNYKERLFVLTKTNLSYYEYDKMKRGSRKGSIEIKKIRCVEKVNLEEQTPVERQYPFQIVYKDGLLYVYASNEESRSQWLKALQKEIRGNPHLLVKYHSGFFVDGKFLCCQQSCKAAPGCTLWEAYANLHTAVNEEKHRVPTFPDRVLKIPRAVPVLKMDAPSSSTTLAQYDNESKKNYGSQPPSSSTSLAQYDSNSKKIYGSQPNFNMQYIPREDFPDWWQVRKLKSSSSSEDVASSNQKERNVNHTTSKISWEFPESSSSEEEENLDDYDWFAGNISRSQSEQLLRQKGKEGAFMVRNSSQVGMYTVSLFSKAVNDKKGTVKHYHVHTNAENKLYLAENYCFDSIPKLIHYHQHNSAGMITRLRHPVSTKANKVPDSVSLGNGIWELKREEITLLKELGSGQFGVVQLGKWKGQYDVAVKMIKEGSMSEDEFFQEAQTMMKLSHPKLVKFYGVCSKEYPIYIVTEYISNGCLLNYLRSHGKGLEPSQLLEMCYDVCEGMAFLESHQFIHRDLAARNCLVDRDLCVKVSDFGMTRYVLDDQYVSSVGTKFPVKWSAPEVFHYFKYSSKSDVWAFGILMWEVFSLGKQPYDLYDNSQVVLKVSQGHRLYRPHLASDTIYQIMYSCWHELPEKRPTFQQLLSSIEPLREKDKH

T-24 [6] = experiment: Induction in apoptosis in human T24 cells assessed as viable cells at 0.5 uM incubated for 48 hrs by Annexin V-FITC staining based flow cytometry analysis (reference value: 90.44 %); format: functional; settings: read-out: Activity
T-24 [7] = experiment: Induction of cell cycle arrest in human T24 cells assessed as accumulation of cells at G1 phase at 0.50 uM incubated for 24 hrs by RNase A/Propidium Iodide staining based flow cytometry analysis (reference value: 43.80 %); format: functional; settings: dose 0.5 µM
T-24 [8] = experiment: Induction in apoptosis in human T24 cells assessed as early apoptotic cells at 0.5 uM incubated for 48 hrs by Annexin V-FITC staining based flow cytometry analysis (reference value: 3.64 %); format: functional
T-24 [9] = experiment: Induction in apoptosis in human T24 cells assessed as total apoptotic cells at 0.125 to 0.50 uM incubated for 48 hrs by Annexin V-FITC staining based flow cytometry analysis (reference value: 8 %); format: functional; settings: dose 0.125-0.5 µM, at 0.125 to 0.5 µM
T-24 [10] = experiment: Antiproliferative activity against human T24 cells assessed as inhibition of cell proliferation at 0.25 uM incubated for 72 hrs by MTT assay relative to control; format: functional
T-24 [11] = experiment: Induction in apoptosis in human T24 cells assessed as early apoptotic cells at 0.13 uM incubated for 48 hrs by Annexin V-FITC staining based flow cytometry analysis (reference value: 3.64 %); format: functional
T-24 [12] = experiment: Induction in apoptosis in human T24 cells assessed as late apoptotic cells at 0.25 uM incubated for 48 hrs by Annexin V-FITC staining based flow cytometry analysis (reference value: 4.78 %); format: functional
[13] = Solubility of the compound in PEG400; format: physicochemical
[14] = Toxicity in male C57BL/6 mouse allografted with mouse MB49 cells assessed as adverse effect at 1 mg/kg,iv bid measured after 14 days; format: organism-based; settings: in vivo, 336 h, time 14 day
[15] = target: T1, Cytoplasmic tyrosine-protein kinase BMX (Homo sapiens); experiment: Inhibition of BMX phosphorylation in human T24 cells incubated for 24 hrs by Western blotting analysis; format: cell-based; settings: dose 0.13-0.5 µM
T-24 [16] = experiment: Induction in apoptosis in human T24 cells assessed as necrotic cells at 0.13 uM incubated for 48 hrs by Annexin V-FITC staining based flow cytometry analysis (reference value: 1.14 %); format: functional
[17] = Antitumor activity against mouse MB49 cells implanted in male C57BL/6 mouse model assessed as reduction in tumor weight at 1 mg/kg,iv bid measured after 14 days relative to control; format: functional; design: scale not given: the % may be the effect or the level left; settings: time 14 day
T-24 [18] = experiment: Induction of cell cycle arrest in human T24 cells assessed as accumulation of cells at S phase at 0.25 uM incubated for 24 hrs by RNase A/Propidium Iodide staining based flow cytometry analysis (reference value: 31.27 %); format: functional
[19] = Solubility of the compound in 5% saline and 50% PEG400; format: physicochemical
[20] = Downregulation of p-AKT expression level in human T24 cells at 0.13 to 0.50 uM incubated for 24 hrs by Western blotting analysis relative to control; format: functional, T-24; settings: dose 0.13-0.5 µM, at 0.13 to 0.5 µM
[21] = target: Signal transducer and activator of transcription 3 (Homo sapiens) (UniProt P40763); experiment: Inhibition of STAT3 phosphorylation in human T24 cells incubated for 24 hrs by Western blotting analysis; format: cell-based; settings: dose 0.13-0.5 µM
T-24 [22] = experiment: Induction of cell cycle arrest in human T24 cells assessed as accumulation of cells at G2/M phase at 0.50 uM incubated for 24 hrs by RNase A/Propidium Iodide staining based flow cytometry analysis (reference value: 22.67 %); format: functional; settings: dose 0.5 µM
T-24 [23] = experiment: Induction in apoptosis in human T24 cells assessed as late apoptotic cells at 0.13 uM incubated for 48 hrs by Annexin V-FITC staining based flow cytometry analysis (reference value: 4.78 %); format: functional
T-24 [24] = experiment: Induction of cell cycle arrest in human T24 cells assessed as accumulation of cells at G2/M phase at 0.25 uM incubated for 24 hrs by RNase A/Propidium Iodide staining based flow cytometry analysis (reference value: 22.67 %); format: functional
[25] = Downregulation of STAT3 expression level in human T24 cells at 0.25 uM incubated for 24 hrs by Western blotting analysis relative to control; format: functional, T-24
T-24 [26] = experiment: Antiproliferative activity against human T24 cells assessed as inhibition of cell proliferation at 0.25 uM incubated for 120 hrs by MTT assay relative to control; format: functional

Sequence of Signal transducer and activator of transcription 3 (Homo sapiens) (P40763 whole entry): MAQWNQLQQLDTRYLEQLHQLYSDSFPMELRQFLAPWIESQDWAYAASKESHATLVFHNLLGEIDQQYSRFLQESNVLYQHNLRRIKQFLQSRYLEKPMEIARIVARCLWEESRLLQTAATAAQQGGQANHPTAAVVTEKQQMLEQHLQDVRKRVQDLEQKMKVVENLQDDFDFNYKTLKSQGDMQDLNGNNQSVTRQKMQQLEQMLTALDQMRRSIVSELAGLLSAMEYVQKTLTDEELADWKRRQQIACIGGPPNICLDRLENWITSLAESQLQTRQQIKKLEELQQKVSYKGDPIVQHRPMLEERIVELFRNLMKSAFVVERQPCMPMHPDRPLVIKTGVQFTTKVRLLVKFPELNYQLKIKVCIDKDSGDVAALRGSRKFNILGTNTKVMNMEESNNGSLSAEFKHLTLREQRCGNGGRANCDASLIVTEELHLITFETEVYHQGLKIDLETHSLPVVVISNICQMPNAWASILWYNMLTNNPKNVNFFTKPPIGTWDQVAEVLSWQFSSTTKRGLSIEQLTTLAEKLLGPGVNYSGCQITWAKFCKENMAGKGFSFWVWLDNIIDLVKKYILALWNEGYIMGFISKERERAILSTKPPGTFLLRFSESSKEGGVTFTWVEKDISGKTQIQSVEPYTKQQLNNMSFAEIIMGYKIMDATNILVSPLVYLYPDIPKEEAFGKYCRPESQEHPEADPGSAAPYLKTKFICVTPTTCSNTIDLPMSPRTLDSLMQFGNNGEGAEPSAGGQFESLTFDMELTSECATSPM

pIC50 (HT-29): 6.39
Activity [5]: Dose-dependent-effect
solubility [13]: Not_active
inhibition [15]: Dose-dependent-effect
solubility [19]: 5000 µg/mL (≈ 13 mM)
inhibition [21]: Dose-dependent-effect
SMILES: C[C@H]1CCC/C=C/[C@@H]2C[C@H](O)C[C@H]2[C@H](OC(=O)c2cccnc2)/C=C/C(=O)O1
inhibition in vivo at 1 mg/kg [1]: 51%
Activity (T-24 [2]): 6.75%
Activity (T-24 [3]): 28.6%
Activity [4]: Non-toxic
viability at 0.5 µM (T-24 [6]): 65.6%
Activity (T-24 [7]): 63.82%
Activity (T-24 [8]): 6.11%
Activity (T-24 [9]): 31%
inhibition at 0.25 µM (T-24 [10]): 54%
Activity (T-24 [11]): 5.52%
Activity (T-24 [12]): 23.01%
Activity [14]: Non-toxic
Activity (T-24 [16]): 0.91%
Activity [17]: 48%
Activity (T-24 [18]): 29.56%
Activity [20]: 46%
Activity (T-24 [22]): 14.82%
Activity (T-24 [23]): 4.41%
Activity (T-24 [24]): 19.43%
Activity [25]: 53%
inhibition at 0.25 µM (T-24 [26]): 91%
